From PubChem BioAssay AID330 (DTP/NCI, 2004) come the findings set out here.

Where “and” joins values, the source holds several entries; their conditions need not be identical. Equal values may be shown once. Toxic doses and inconclusive results are not listed.

The subject of the assay is P388 leukemia ip, CD2F1 mice, survival T/C. Put plainly: NCI In Vivo Anticancer Drug Screen. Data for tumor model P388 Leukemia (intraperitoneal) in CD2F1 (CDF1) mice. Conditions: endpoint: median survival time, higher = longer survival. Summed up: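 Mice carrying the transplanted tumor received test compound or vehicle. Survival was recorded in each group, and the value is the treated-group measurement divided by that of the vehicle-treated control group.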

The mark [1] stands for this setting: dose: 50.0 mg/kg/injection, schedule: Q01DX005 (ip), vehicle: Klucel (hydroxypropylcellulose) (HPC).
Where [2] appears, read: dose: 100.0 mg/kg/injection, schedule: Q01DX005 (ip), vehicle: Klucel (hydroxypropylcellulose) (HPC).
The mark [3] stands for this setting: dose: 200.0 mg/kg/injection, schedule: Q01DX005 (ip), vehicle: Klucel (hydroxypropylcellulose) (HPC).
Setting [4] is: dose: 50.0 mg/kg/injection, schedule: Q01DX009 (ip), vehicle: saline with Tween-80.
The mark [5] stands for this setting: dose: 100.0 mg/kg/injection, schedule: Q01DX009 (ip), vehicle: saline with Tween-80.
Setting [6] is: dose: 200.0 mg/kg/injection, schedule: Q01DX009 (ip), vehicle: saline with Tween-80.
Where [7] appears, read: dose: 50.0 mg/kg/injection, schedule: Q01DX009 (ip), vehicle: Klucel (hydroxypropylcellulose) (HPC).
[8] abbreviates: dose: 100.0 mg/kg/injection, schedule: Q01DX009 (ip), vehicle: Klucel (hydroxypropylcellulose) (HPC).
Setting [9] is: dose: 50.0 mg/kg/injection, schedule: Q01DX009 (ip), vehicle: saline.
[10] abbreviates: dose: 100.0 mg/kg/injection, schedule: Q01DX009 (ip), vehicle: saline.
[11] abbreviates: dose: 50.0 mg/kg/injection, schedule: Q01DX005 (ip), vehicle: saline with Tween-80.
Setting [12] is: dose: 100.0 mg/kg/injection, schedule: Q01DX005 (ip), vehicle: saline with Tween-80.
Setting [13] is: dose: 200.0 mg/kg/injection, schedule: Q01DX005 (ip), vehicle: saline with Tween-80.
The mark [14] stands for this setting: dose: 60.0 mg/kg/injection, schedule: Q01DX005 (ip), vehicle: saline with Tween-80.
Setting [15] is: dose: 120.0 mg/kg/injection, schedule: Q01DX005 (ip), vehicle: saline with Tween-80.
[16] abbreviates: dose: 240.0 mg/kg/injection, schedule: Q01DX005 (ip), vehicle: saline with Tween-80.

For the compound `COc1cc(-c2nn(CN3CCOCC3)c(=S)o2)cc(OC)c1OC`, the T/C is 96 % of control under setting [1], 97 % of control under setting [2] and 99 % of control under setting [3].

For `O=C(Nc1ccccc1C(=O)c1ccccc1)Nc1ccc(F)cc1[N+](=O)[O-]`, the T/C runs as follows: under setting [4], 97 % of control; under setting [5], 109 % of control; under setting [6], 94 % of control.

On to `COc1ccc(CC2C(=O)NC(C)C(=O)N(C)C3C(=O)N(C)C(Cc4ccc(OC(C)=O)c(c4)Oc4ccc(cc4)C3OC(C)=O)C(=O)NC(C)C(=O)NC(C)C(=O)N2C)cc1` (stereo not given), for which, for the setting “dose: 2.0 mg/kg/injection, schedule: Q01DX009 (ip), vehicle: none”, the T/C is 154 % of control.

On to `CCN(CC)CCOC(=O)C1c2ccccc2-c2ccccc21`, for which the T/C by setting is: (dose: 50.0 mg/kg/injection, schedule: Q01DX005 (ip), vehicle: saline + Tween-80 + alcohol) 99 % of control; (dose: 100.0 mg/kg/injection, schedule: Q01DX005 (ip), vehicle: saline + Tween-80 + alcohol) 95 % of control; (dose: 200.0 mg/kg/injection, schedule: Q01DX005 (ip), vehicle: saline + Tween-80 + alcohol) 103 % of control.

For `CN1CC2CCCCN2CC(Cc2ccccc2)([N+](=O)[O-])C1` (stereo not given), the T/C by setting is: (dose: 100.0 mg/kg/injection, schedule: Q04DX002 (ip), vehicle: saline) 109 % of control; (dose: 200.0 mg/kg/injection, schedule: Q04DX002 (ip), vehicle: saline) 109 % of control.

As for `C=C(C)c1nc(N)nc(NCc2ccccc2)n1`, the T/C under setting [1] was 100 % of control, the T/C under setting [2] was 102 % of control and the T/C under setting [3] was 109 % of control.

For `Cc1ccc2c(c1)sc1n[nH]c(=O)n12`, the T/C was 100 % of control under setting [7] and 105 % of control under setting [8].

As to `O=C1NC(O)c2ccccc2O1` (stereo not given), the T/C by setting is: under setting [9], 106 % of control; under setting [10], 123 % of control.

On to `OCC1OC(OC2C(CO)OC(S)C(O)C2O)C(O)C(O)C1O` (stereo not given), for which the T/C was 98 % of control under setting [4], 92 % of control under setting [5] and 92 % of control under setting [6].

In the case of `Nc1nc2ncnc(N)c2nc1-c1ccc(N(CCO)CCO)cc1`, the T/C (dose: 60.0 mg/kg/injection, schedule: Q01DX005 (ip), vehicle: Klucel (hydroxypropylcellulose) (HPC)) is 91 % of control; the T/C (dose: 120.0 mg/kg/injection, schedule: Q01DX005 (ip), vehicle: Klucel (hydroxypropylcellulose) (HPC)) was 90 % of control; the T/C (dose: 240.0 mg/kg/injection, schedule: Q01DX005 (ip), vehicle: Klucel (hydroxypropylcellulose) (HPC)) is 91 % of control.

For `N#CCCNNc1ccccc1`, the T/C (dose: 50.0 mg/kg/injection, schedule: Q01DX001 (ip), vehicle: saline) is 100 % of control; the T/C (dose: 100.0 mg/kg/injection, schedule: Q01DX001 (ip), vehicle: saline) is 106 % of control; the T/C (dose: 200.0 mg/kg/injection, schedule: Q01DX001 (ip), vehicle: saline) is 97 % of control.

In the case of `COC(=O)C1=C(O)C(C(=O)OC)C2C(C(=O)OC)=C(O)C(C(=O)OC)C12` (stereo not given), the T/C under setting [1] is 97 % of control, the T/C under setting [2] is 103 % of control and the T/C under setting [3] is 92 % of control.

For `CCOC(=O)\C(C#N)=C/C=C/C(C)=C/Nc1ccc([N+](=O)[O-])cc1[N+](=O)[O-]`, the T/C was 91 % of control under setting [1], 91 % of control under setting [2] and 102 % of control under setting [3].

Take `CC[C@@]12C[C@]1(C(=O)OC)C(=O)N1CCc3c([nH]c4ccccc34)[C@H]12`: the T/C is 90 % of control under setting [1], 96 % of control under setting [2] and 91 % of control under setting [3].

As to `CCC1(CC)NC(=O)[C@H](C)N1S(C)(=O)=O`, the T/C is, setting by setting: under setting [11], 100 % of control; under setting [12], 96 % of control; under setting [13], 89 % of control.

In the case of `CN=C/C(C(C)=O)=C(\C)O`, the T/C was 103 % of control (dose: 12.5 mg/kg/injection, schedule: Q01DX009 (ip), vehicle: saline); 105 % of control (dose: 25.0 mg/kg/injection, schedule: Q01DX009 (ip), vehicle: saline); 101 % of control and 106 % of control under setting [9]; 112 % of control and 91 % of control under setting [10].

As for `NS(=O)(=O)c1ccc(NCc2c3ccccc3nc3cc(Cl)ccc23)cc1`, the T/C is 104 % of control under setting [14], 95 % of control under setting [15] and 94 % of control under setting [16].

For `CCOc1cc2c(cc1C(C)c1ccc(O)cc1)OCO2` (stereo not given), the T/C by setting is: (dose: 50.0 mg/kg/injection, schedule: Q01DX005 (ip), vehicle: distilled water + Tween-80) 102 % of control; (dose: 100.0 mg/kg/injection, schedule: Q01DX005 (ip), vehicle: distilled water + Tween-80) 105 % of control; (dose: 200.0 mg/kg/injection, schedule: Q01DX005 (ip), vehicle: distilled water + Tween-80) 109 % of control.

Turning to `COc1ccc2nc3cc(Cl)ccc3c(NCCCCN3CCCC3)c2n1`, the T/C is 101 % of control (dose: 12.5 mg/kg/injection, schedule: Q01DX009 (ip), vehicle: water) and 105 % of control (dose: 25.0 mg/kg/injection, schedule: Q01DX009 (ip), vehicle: water).

As to `CCOC(=O)c1cncc(Br)c1`, the T/C was 113 % of control under setting [11], 103 % of control under setting [12] and 113 % of control under setting [13].

On to `N#CCCCOCCCOCCCOCCCOCCCOCCCC#N`, for which the T/C reads like this: (dose: 8.75 mg/kg/injection, schedule: Q01DX005 (ip), vehicle: saline with Tween-80) 102 % of control; (dose: 17.5 mg/kg/injection, schedule: Q01DX005 (ip), vehicle: saline with Tween-80) 100 % of control; (dose: 35.0 mg/kg/injection, schedule: Q01DX005 (ip), vehicle: saline with Tween-80) 100 % of control; under setting [11], 121 % of control; (dose: 70.0 mg/kg/injection, schedule: Q01DX005 (ip), vehicle: saline with Tween-80) 108 % of control; under setting [13], 110 % of control.

For the compound `NC(CS)C(=O)NCC(=O)O` (stereo not given), the T/C is, setting by setting: (dose: 50.0 mg/kg/injection, schedule: Q01DX009 (ip), vehicle: distilled water + alcohol) 109 % of control; (dose: 100.0 mg/kg/injection, schedule: Q01DX009 (ip), vehicle: distilled water + alcohol) 98 % of control; (dose: 200.0 mg/kg/injection, schedule: Q01DX009 (ip), vehicle: distilled water + alcohol) 92 % of control.

With `COc1ccc2nc(Cl)c(CBr)c(CBr)c2c1`, the T/C (dose: 12.5 mg/kg/injection, schedule: Q01DX005 (ip), vehicle: Klucel (hydroxypropylcellulose) (HPC)) was 98 % of control and the T/C under setting [1] is 117 % of control.

Consider `CC(C)(C)N1CC(COc2ccc(Cl)cc2)OC1=O` (stereo not given), for which the T/C is, setting by setting: under setting [7], 99 % of control; under setting [8], 104 % of control; (dose: 200.0 mg/kg/injection, schedule: Q01DX009 (ip), vehicle: Klucel (hydroxypropylcellulose) (HPC)) 102 % of control.

For the compound `CC(C)N(C(=O)SCC(Cl)=C(Cl)Cl)C(C)C`, the T/C reads like this: under setting [14], 100 % of control; under setting [15], 103 % of control; under setting [16], 102 % of control.

On to `COc1ccc(NC(=O)/C=C\C(=O)O)cc1OC`, for which the T/C was 96 % of control under setting [11], 96 % of control under setting [12] and 96 % of control under setting [13].

In the case of `O=C(CCCC(=O)Nc1ccc2c(=O)c3ccccc3[nH]c2c1)Nc1ccc2c(=O)c3ccccc3[nH]c2c1`, the T/C is 98 % of control under setting [11], 104 % of control under setting [12] and 100 % of control under setting [13].

With `COc1cc2oc3c(C)c(=O)cc4oc(-c5ccccc5)cc(c2c2c1CCC(c1ccccc1)O2)c43` (stereo not given), the T/C was 106 % of control (dose: 6.25 mg/kg/injection, schedule: Q01DX005 (ip), vehicle: saline with Tween-80); 116 % of control and 211 % of control (dose: 7.0 mg/kg/injection, schedule: Q01DX005 (ip), vehicle: Klucel (hydroxypropylcellulose) (HPC)); 106 % of control (dose: 12.5 mg/kg/injection, schedule: Q01DX005 (ip), vehicle: saline with Tween-80); 98 % of control (dose: 14.0 mg/kg/injection, schedule: Q01DX005 (ip), vehicle: Klucel (hydroxypropylcellulose) (HPC)); 121 % of control (dose: 25.0 mg/kg/injection, schedule: Q01DX005 (ip), vehicle: saline with Tween-80); 124 % of control under setting [11]. For the same compound, the T/C under setting [12] was 114 % of control.
